The source made the active and inactive calls. The calls are words filed in the database; no cut-off is given here.
Columns and labels:
SARS-CoV-2 [1] = assay: Antiviral activity against SARS-CoV-2 Omicron BA.5 infected in human A549-hACE2-TMPRSS2 cells assessed as reduction in viral replication pre-incubated with compound followed by viral infection measured after 72 hrs by ELISA assay; type: functional, organism-based; settings: Severe acute respiratory syndrome coronavirus 2, Omicron BA.5, A549-hACE2-TMPRSS2
SARS-CoV-2 [2] = assay: Antiviral activity against […]-fused SARS-CoV-2 infected in human NHBE-T cells assessed as reduction in cell viability incubated for 1 day by Nano-Glo reagent based analysis; type: functional, organism-based; settings: Severe acute respiratory syndrome coronavirus 2, NHBE-T, 24 h
SARS-CoV-2 [3] = assay: Antiviral activity against SARS-CoV-2 Delta (B.1.617.2) infected in human A549-hACE2-TMPRSS2 cells assessed as reduction in viral replication pre-incubated with compound followed by viral infection measured after 48 hrs by ELISA assay; type: functional, organism-based; settings: Severe acute respiratory syndrome coronavirus 2, Delta (B.1.617.2)
SARS-CoV-2 [4] = assay: Antiviral activity against SARS-CoV-2 Omicron BA.2.12.1 infected in human A549-hACE2-TMPRSS2 cells assessed as reduction in viral replication pre-incubated with compound followed by viral infection measured after 72 hrs by ELISA assay; type: functional, organism-based; settings: Severe acute respiratory syndrome coronavirus 2, Omicron BA.2.12.1, A549-hACE2-TMPRSS2
SARS-CoV-2 [5] = assay: Antiviral activity against SARS-CoV-2 WA1 infected in human A549-hACE2-TMPRSS2 cells assessed as reduction in viral replication pre-incubated with compound followed by viral infection measured after 72 hrs by ELISA assay; type: functional, organism-based; settings: Severe acute respiratory syndrome coronavirus 2, WA1, A549-hACE2-TMPRSS2
SARS-CoV-2 [6] = assay: Antiviral activity against SARS-CoV-2 Omicron XBB infected in human A549-hACE2-TMPRSS2 cells assessed as reduction in viral replication pre-incubated with compound followed by viral infection measured after 72 hrs by ELISA assay; type: functional, organism-based; settings: Severe acute respiratory syndrome coronavirus 2, Omicron XBB
SARS-CoV-2 [7] = assay: Antiviral activity against SARS-CoV-2 Omicron BQ1.1 infected in human A549-hACE2-TMPRSS2 cells assessed as reduction in viral replication pre-incubated with compound followed by viral infection measured after 72 hrs by ELISA assay; type: functional, organism-based; settings: Severe acute respiratory syndrome coronavirus 2, Omicron BQ1.1, A549-hACE2-TMPRSS2
[8] = Cytotoxicity against human MT4 cells assessed as reduction in cell growth measured after 5 days by CellTiter-Glo assay; type: toxicity, cell-based; settings: MT4 cells, time 5 day
SARS-CoV-2 [9] = assay: Antiviral activity against SARS-CoV-2 Omicron BA.4.6 infected in human A549-hACE2-TMPRSS2 cells assessed as reduction in viral replication pre-incubated with compound followed by viral infection measured after 72 hrs by ELISA assay; type: functional, organism-based; settings: Severe acute respiratory syndrome coronavirus 2, Omicron BA.4.6, A549-hACE2-TMPRSS2
SARS-CoV-2 [10] = assay: Antiviral activity against SARS-CoV-2 Omicron BF.5 infected in human A549-hACE2-TMPRSS2 cells assessed as reduction in viral replication pre-incubated with compound followed by viral infection measured after 72 hrs by ELISA assay; type: functional, organism-based; settings: Severe acute respiratory syndrome coronavirus 2, Omicron BF.5, A549-hACE2-TMPRSS2
SARS-CoV-2 [11] = assay: Antiviral activity against SARS-CoV-2 Omicron BA.2.75 infected in human A549-hACE2-TMPRSS2 cells assessed as fold reduction in viral replication pre-incubated with compound followed by viral infection measured after 72 hrs by ELISA assay relative to SARS-CoV-2 WA1; type: functional, Severe acute respiratory syndrome coronavirus 2
SARS-CoV-2 [12] = assay: Antiviral activity against SARS-CoV-2 Omicron XBB infected in human A549-hACE2-TMPRSS2 cells assessed as fold reduction in viral replication pre-incubated with compound followed by viral infection measured after 72 hrs by ELISA assay relative to SARS-CoV-2 WA1; type: functional, Severe acute respiratory syndrome coronavirus 2
SARS-CoV-2 [13] = assay: Antiviral activity against SARS-CoV-2 Omicron BA.2.75 infected in human A549-hACE2-TMPRSS2 cells assessed as reduction in viral replication pre-incubated with compound followed by viral infection measured after 72 hrs by ELISA assay; type: functional, organism-based; settings: Severe acute respiratory syndrome coronavirus 2, Omicron BA.2.75, A549-hACE2-TMPRSS2
SARS-CoV-2 [14] = assay: Antiviral activity against SARS-CoV-2 Omicron BQ1.1 infected in human A549-hACE2-TMPRSS2 cells assessed as fold reduction in viral replication pre-incubated with compound followed by viral infection measured after 72 hrs by ELISA assay relative to SARS-CoV-2 WA1; type: functional, Severe acute respiratory syndrome coronavirus 2
[15] = Cytotoxicity against human A549-ACE2 cells assessed as reduction in cell growth measured after 48 hrs by CellTiter-Glo assay; type: toxicity, cell-based; settings: for CC50 at 48 h: A549-ACE2 cells
SARS-CoV-2 [16] = assay: Antiviral activity against SARS-CoV-2 Omicron BA.1 infected in human A549-hACE2-TMPRSS2 cells assessed as reduction in viral replication pre-incubated with compound followed by viral infection measured after 72 hrs by ELISA assay; type: functional, organism-based; settings: Severe acute respiratory syndrome coronavirus 2, Omicron BA.1, A549-hACE2-TMPRSS2
SARS-CoV-2 [17] = assay: Antiviral activity against Nluc-fused SARS-CoV-2 infected in human A549-ACE2 cells assessed as reduction in cell viability incubated for 2 days by Nano-Glo reagent based analysis; type: functional, organism-based; settings: Severe acute respiratory syndrome coronavirus 2, A549-ACE2, 48 h
SARS-CoV-2 [18] = assay: Antiviral activity against SARS-CoV-2 Omicron BA.2 infected in human A549-hACE2-TMPRSS2 cells assessed as reduction in viral replication pre-incubated with compound followed by viral infection measured after 72 hrs by ELISA assay; type: functional, organism-based; settings: Severe acute respiratory syndrome coronavirus 2, Omicron BA.2, A549-hACE2-TMPRSS2
SARS-CoV-2 [19] = assay: Antiviral activity against SARS-CoV-2 Omicron BA.4 infected in human A549-hACE2-TMPRSS2 cells assessed as reduction in viral replication pre-incubated with compound followed by viral infection measured after 72 hrs by ELISA assay; type: functional, organism-based; settings: Severe acute respiratory syndrome coronavirus 2, Omicron BA.4, A549-hACE2-TMPRSS2
[20] = Apparent permeability of the compound from apical to basolateral side in human Caco-2 cells incubated for 2 hrs by LC-MS/MS analysis; type: ADME, cell-based; settings: Caco-2
[21] = target: T1, Adenosine deaminase (Homo sapiens) (UniProt P00813); assay: Inhibition of human recombinant ADA1-mediated drug metabolism at 100 uM incubated for 58 mins by absorbance based analysis
T1 sequence (whole entry): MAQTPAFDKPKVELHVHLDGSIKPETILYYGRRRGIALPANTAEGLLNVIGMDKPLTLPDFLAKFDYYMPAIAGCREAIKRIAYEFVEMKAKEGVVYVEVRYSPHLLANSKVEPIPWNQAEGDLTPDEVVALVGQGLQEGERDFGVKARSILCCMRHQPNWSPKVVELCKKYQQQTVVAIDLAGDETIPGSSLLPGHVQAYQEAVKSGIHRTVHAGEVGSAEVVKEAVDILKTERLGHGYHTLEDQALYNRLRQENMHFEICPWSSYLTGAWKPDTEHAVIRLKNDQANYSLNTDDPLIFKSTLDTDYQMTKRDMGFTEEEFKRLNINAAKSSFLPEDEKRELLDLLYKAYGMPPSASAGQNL

[22] = Lipophilicity, logD of compound; type: physicochemical; settings: octanol/water
[23] = Thermodynamic aqueous solubility at pH 7 measured at 24 hrs by UPLC analysis; type: physicochemical; settings: aqueous solution, read-out: Therm_solubility

SMILES | EC50 (SARS-CoV-2 [1]) | EC50 (SARS-CoV-2 [2]) | EC50 (SARS-CoV-2 [3]) | EC50 (SARS-CoV-2 [4]) | EC50 (SARS-CoV-2 [5]) | EC50 (SARS-CoV-2 [6]) | EC50 (SARS-CoV-2 [7]) | CC50 at 120 h [8] | EC50 (SARS-CoV-2 [9]) | EC50 (SARS-CoV-2 [10]) | fold change (FC) (SARS-CoV-2 [11]) | fold change (FC) (SARS-CoV-2 [12]) | EC50 (SARS-CoV-2 [13]) | fold change (FC) (SARS-CoV-2 [14]) | EC50 (SARS-CoV-2 [16]) | EC50 (SARS-CoV-2 [17]) | EC50 (SARS-CoV-2 [18]) | EC50 (SARS-CoV-2 [19]) | Papp A→B at 2 h [20] | inhibition [21] | also measured
CCC(CC)COC(=O)[C@H](C)N[P@](=O)(OC[C@H]1O[C@@](C#N)(c2ccc3c(N)ncnn23)[C@H](O)[C@@H]1O)Oc1ccccc1 | 0.11 µM | 0.04 µM | 0.07 µM | 0.03 µM | 0.08 µM | 0.09 µM | 0.09 µM | 1.7 µM | 0.09 µM | 0.13 µM | 0.3 | 1.07 | 0.03 µM | 1.12 | 0.04 µM | 0.06 µM | 0.02 µM | 0.02 µM |  |  | CC50 ([15]; a549-ace2, 48 h): 22.9 µM
N#C[C@@]1(c2ccc3c(N)ncnn23)O[C@H](CO)[C@@H](O)[C@H]1O [GS-441524] | 4.8 µM | 3.25 µM | 3.26 µM | 1.79 µM | 4.45 µM | 6.3 µM | 8.77 µM | 69 µM | 5.4 µM | 7.78 µM |  |  | 2.58 µM | 1.33 | 2.66 µM | 2.49 µM | 1.33 µM | 1.63 µM | 0.1 ×10⁻⁶ cm/s | Active | logD [22]: < 0.3; solubility thermodynamic at 24 h [23]: ≤ 70 µg/mL; CC50 at 48 h [15]: > 50 µM
CC(C)C(=O)OC[C@H]1O[C@@](C#N)(c2ccc3c(N)ncnn23)[C@H](O)[C@@H]1O [OBELDESIVIR] | 1.3 µM | 0.43 µM | 0.74 µM | 0.44 µM | 1.01 µM | 2.03 µM | 2.44 µM | > 50 µM | 2.45 µM | 3.13 µM | 0.35 | 1.1 | 0.69 µM | 1.33 | 0.65 µM | 1.9 µM | 0.71 µM | 0.4 µM | 1 ×10⁻⁶ cm/s | Active | logD ([22]; read-out: logD): < 0.9; solubility thermodynamic at 24 h [23]: ≥ 1000 µg/mL; CC50 at 48 h [15]: > 50 µM

Source: ChEMBL document CHEMBL5321279 (J Med Chem, 2023)
